Consider 21 molecules from patent US9624182B2, “Compounds as lysophosphatidic acid receptor antagonists” (Amira Pharmaceuticals, Inc., priority 2009, dated 2017).

This assay deals with T1, human LPA1 (Homo sapiens, UniProt Q92633).
T1 construct: the full-length cDNA for human LPA1 was obtained by PCR of the reverse transcription reaction; expressed in transfected cells
Briefly: LPA1 calcium flux assay. In kind it is cell-based. Particulars: CHO cells expressing human LPA1, stimulated with 10 nM LPA; read-out: HLPA1 Ca Flux IC50. As to the method: A 1.1 kb cDNA encoding the human LPA1 receptor was cloned from human lung. Human lung RNA (Clontech Laboratories, Inc. USA) was reverse transcribed using the RETROscript kit (Ambion, Inc.) and the full-length cDNA for human LPA1 was obtained by PCR of the reverse transcription reaction. The nucleotide sequence of the cloned human LPA1 was determined by sequencing and confirmed to be identical to the published human LPA1 sequence (An et al. Biochenm. Biophys. Res. Commun. 231:619 (1997). The cDNA was cloned into the pCDNA5/FRT expression plasmid and transfected in CHO cells using lipofectamine 2000 (Invitrogen Corp., USA). Clones stably expressing human LPA1 were selected using hygromycin and identified as cells that show Ca-influx in response to LPA.
Human LPA1 or LPA3 expressing CHO cells are seeded at 20,000-45,000 cells per well in a 96-well poly-D-lysine coated plate one or two days before the assay. Prior to the assay, the cells are washed once with PBS and then cultured in serum-free media overnight. On the day of the assay, a calcium indicator dye (Calcium 4, Molecular Devices) in assay buffer (HBSS with Ca^2+ and Mg^2+ and containing 20 mM Hepes and 0.3% fatty-acid free human serum albumin) is added to each well and incubation continued for 1 hour at 37° C. 10 μl of test compounds in 2.5% DMSO are added to the cells and incubation continued at room temperature for 30 minutes. Cells are the stimulated by the addition of 10 nM LPA and intracellular Ca^2+ measured using the Flexstation 3 (Molecular Devices). IC50s are determined using Graphpad prism analysis of drug titration curves.
(A change in cytosolic calcium serves as a functional read-out for many receptors and channels.)

T1 sequence (Q92633 whole entry): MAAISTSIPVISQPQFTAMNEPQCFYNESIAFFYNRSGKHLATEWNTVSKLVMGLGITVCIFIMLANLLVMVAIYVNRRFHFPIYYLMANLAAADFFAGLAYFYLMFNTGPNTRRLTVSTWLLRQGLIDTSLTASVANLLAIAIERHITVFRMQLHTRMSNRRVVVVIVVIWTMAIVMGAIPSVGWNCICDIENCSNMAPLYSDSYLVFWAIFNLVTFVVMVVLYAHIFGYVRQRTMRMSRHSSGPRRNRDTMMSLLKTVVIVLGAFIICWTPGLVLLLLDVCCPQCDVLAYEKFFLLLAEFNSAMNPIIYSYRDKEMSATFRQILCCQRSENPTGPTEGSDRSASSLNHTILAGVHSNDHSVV

For `Cc1noc(-c2ccc(-c3ccc([C@@H]4C[C@H]4C(=O)O)cc3)cc2)c1/C=C/CCc1ccccc1` (relative stereo) [Compound 1-128, (trans)-2-{4′-[3-Methyl-4-(4-phenyl-but-1-enyl)-isoxazol-5-yl]-biphenyl-4-yl}-cyclopropanecarboxylic acid], the concentration for half-maximal inhibition (IC50) (usually the concentration needed to halve the response being measured) is 1000 to 50000 nM.

Regarding `Cc1noc(-c2ccc(-c3ccc([C@H]4C[C@H]4C(=O)O)cc3)cc2)c1/C=C/CCc1ccccc1` (relative stereo) [Compound 1-129, (cis)-2-{4′-[3-Methyl-4-(4-phenyl-but-1-enyl)-isoxazol-5-yl]-biphenyl-4-yl}-cyclopropanecarboxylic acid], the IC50 was below 300 nM.

For `Cc1noc(-c2ccc(-c3ccc([C@@H]4C[C@H]4C(=O)O)cc3)cc2)c1CSCCc1ccccc1` (relative stereo) [Compound 1-130, (trans)-2-[4′-(3-Methyl-4-phenethylsulfanylmethyl-isoxazol-5-yl)-biphenyl-4-yl]-cyclopropanecarboxylic acid], the IC50 lay in the range of 300 to 1000 nM.

For `Cc1noc(-c2ccc(-c3ccc([C@H]4C[C@H]4C(=O)O)cc3)cc2)c1CSCCc1ccccc1` (relative stereo) [Compound 1-131, (cis)-2-[4′-(3-Methyl-4-phenethylsulfanylmethyl-isoxazol-5-yl)-biphenyl-4-yl]-cyclopropanecarboxylic acid], the IC50 is below 300 nM. Consider `Cc1noc(-c2ccc(-c3ccc([C@H]4C[C@H]4C(=O)O)cc3)cc2)c1CC(F)(F)CCc1ccccc1` (relative stereo) [Compound 1-135, (cis)-2-{4′-[4-(2,2-Difluoro-4-phenyl-butyl)-3-methyl-isoxazol-5-yl]-biphenyl-4-yl}-cyclopropanecarboxylic acid], for which the IC50 is below 300 nM. Under `Cc1noc(-c2ccc(-c3ccc([C@H]4C[C@H]4C(=O)O)cc3)cc2)c1C(O)CCCc1ccccc1` (relative stereo) [Compound 1-144, (cis)-2-{4′-[4-(1-Hydroxy-4-phenyl-butyl)-3-methyl-isoxazol-5-yl]-biphenyl-4-yl}-cyclopropanecarboxylic acid] stands below 300 nM; under `Cc1noc(-c2ccc(-c3ccc([C@H]4C[C@H]4C(=O)O)cc3)cc2)c1CSCCc1ccccc1` (single isomer, unassigned) [Compound 1-149, (cis)-2-[4′-(3-Methyl-4-phenethylsulfanylmethyl-isoxazol-5-yl)-biphenyl-4-yl]-cyclopropanecarboxylic acid], below 300 nM; under `Cc1noc(-c2ccc(-c3ccc([C@H]4C[C@H]4C(=O)O)cc3)cc2)c1CSCCc1ccccc1` (single isomer, unassigned) [Compound 1-150, (cis)-2-[4′-(3-Methyl-4-phenethylsulfanylmethyl-isoxazol-5-yl)-biphenyl-4-yl]-cyclopropanecarboxylic acid], 1000 to 50000 nM. The result for `Cc1noc(-c2ccc(-c3ccc(C4(C(=O)O)CC4)cc3)cc2)c1C(O)CCCc1ccccc1` (single isomer, unassigned) [Compound 1-156, 1-{4′-[4-(1-Hydroxy-4-phenyl-butyl)-3-methyl-isoxazol-5-yl]-biphenyl-4-yl}-cyclopropanecarboxylic acid] reads below 300 nM; that for `Cc1noc(-c2ccc(-c3ccc(CC(=O)O)cc3)cc2)c1C(O)CCCc1ccccc1` (single isomer, unassigned) [Compound 1-174, {4′-[4-(1-Hydroxy-4-phenyl-butyl)-3-methyl-isoxazol-5-yl]-biphenyl-4-yl}-acetic acid], below 300 nM.

As for `Cc1noc(-c2ccc(-c3ccc(C4(CC(=O)O)CC4)cc3)cc2)c1C(O)CCCc1ccccc1` (single isomer, unassigned) [Compound 1-176, (1-{4′-[4-(1-Hydroxy-4-phenyl-butyl)-3-methyl-isoxazol-5-yl]-biphenyl-4-yl}-cyclopropyl)-acetic acid], the IC50 was below 300 nM. The result for `Cc1noc(-c2ccc(-c3ccc(C4(CC(=O)O)CC4)cc3)cc2)c1C(O)CCCc1ccccc1` (single isomer, unassigned) [Compound 1-177, (1-{4′-[4-(1-Hydroxy-4-phenyl-butyl)-3-methyl-isoxazol-5-yl]-biphenyl-4-yl}-cyclopropyl)-acetic acid] reads below 300 nM; that for `Cc1noc(-c2ccc(-c3ccc(C4(C(=O)O)CC4)cc3)cc2)c1C(O)COCc1ccccc1` (single isomer, unassigned) [Compound 1-198, 1-{4′-[4-(2-Benzyloxy-1-hydroxy-ethyl)-3-methyl-isoxazol-5-yl]-biphenyl-4-yl}-cyclopropanecarboxylic acid], below 300 nM. The result for `Cc1noc(-c2ccc(-c3ccc(C4(C(=O)O)CC4)cc3)cc2)c1C(O)COCc1ccccc1` (single isomer, unassigned) [Compound 1-199, 1-{4′-[4-(2-Benzyloxy-1-hydroxy-ethyl)-3-methyl-isoxazol-5-yl]-biphenyl-4-yl}-cyclopropanecarboxylic acid] reads below 300 nM; that for `Cc1noc(-c2ccc(-c3ccc(C4CC4C(=O)O)cc3)cc2)c1[C@H](O)COCc1ccccc1` (single isomer, unassigned) [Compound 1-216], below 300 nM; that for `Cc1noc(-c2ccc(-c3ccc(C4CC4C(=O)O)cc3)cc2)c1[C@H](O)COCc1ccccc1` (single isomer, unassigned) [Compound 1-217], below 300 nM. As to `Cc1noc(-c2ccc(-c3ccc(C4(C(=O)O)CC4)cc3)cc2)c1NC(C)CCc1ccccc1` (single isomer, unassigned) [Compound 1-220, 1-{4′-[3-Methyl-4-(1-methyl-3-phenyl-propylamino)-isoxazol-5-yl]-biphenyl-4-yl}-cyclopropanecarboxylic acid], the IC50 was below 300 nM. The result for `Cc1noc(-c2ccc(-c3ccc(C4(C(=O)O)CC4)cc3)cc2)c1NC(C)CCc1ccccc1` (single isomer, unassigned) [Compound 1-221, 1-{4′-[3-Methyl-4-(1-methyl-3-phenyl-propylamino)-isoxazol-5-yl]-biphenyl-4-yl}-cyclopropanecarboxylic acid] reads below 300 nM; that for `Cc1noc(-c2ccc(-c3ccc(CCC(=O)O)cc3)cc2)c1NC(C)CCc1cccc(C(F)(F)F)c1` (single isomer, unassigned) [Compound 1-234, 3-(4′-{3-Methyl-4-[1-methyl-3-(3-trifluoromethyl-phenyl)-propylamino]-isoxazol-5-yl}-biphenyl-4-yl)-propionic acid], above 50000 nM. The result for `Cc1noc(-c2ccc(-c3ccc(CCC(=O)O)cc3)cc2)c1NC(C)CCc1cccc(C(F)(F)F)c1` (single isomer, unassigned) [Compound 1-235, 3-(4′-{3-Methyl-4-[1-methyl-3-(3-trifluoromethyl-phenyl)-propylamino]-isoxazol-5-yl}-biphenyl-4-yl)-propionic acid] reads below 300 nM; that for `Cc1noc(-c2ccc(-c3ccc(C4(C(=O)O)CC4)cc3)cc2)c1NC(C)CCc1cccc(Cl)c1` (single isomer, unassigned) [Compound 1-239, 1-(4′-{4-[3-(3-Chloro-phenyl)-1-methyl-propylamino]-3-methyl-isoxazol-5-yl}-biphenyl-4-yl)-cyclopropanecarboxylic acid], below 300 nM.
